Results on six compounds are retold here after patent publication US10550120B2, “Indole alkaloid compound having immune checkpoint inhibitory action” (TOHOKU UNIVERSITY, priority 2016, dated 2020).

In one assay the test system is CTLA-4. Nature of the assay: Intracellular staining of MT2 cells with fluorescence-labeled anti-CTLA-4 antibody and measurement by flow cytometry. In kind it is cell-based, human. The settings on record: 25.0 μmol/L, 48±2 hours; for Peak MFI of CTLA-4: isotype IgG2a subtracted, average of n=3; for activity at 25 µM: Homo sapiens, 48 h, DMSO control = 100%, read-out: % against control (CTLA-4 expression). How it is done: (§1) MT2 cells from human adult T-cell leukemia were used. Leukemia cells of human adult T-cell leukemia (ATL) express CD4 and CD25 molecules on the cell surface and are considered to be derived from Treg (Chen S. et al., International Immunology 18:269-277 (2005)). MT2 cells were used in experiments as models of Treg since the cells are CD4 positive, CD25 positive, and FOXP3 positive celles derived from ATL.
(§2) The example compounds (compounds 1-17) of the present invention were dissolved in dimethylsulfoxide (DMSO) to prepare each 50 mmol/L solution, which was preserved at −80° C.
(1) MT2 cells were suspended in RPMI1640 medium (hereinafter referred to as “the medium”) supplemented with 10% fetal calf serum (FCS) and 1° penicillin/streptomycin (P/S) to give 3×10^5 cells/mL suspension and 3 mL of the suspension was added to each well of a 6-well plate. To each well were added 0.6 or 1.2 μL of the test compound solutions (compounds 1, 2, and 4), 0.75 or 1.5 μL of the test compound solution (compound 9), and 1.5 μL of the test compound solutions (compounds 8 and 10-17), and the cell cultures were incubated in a CO2 gas incubator (under 37° C., 5% CO2) and cultured for 48±2 hours. As a control of compound 1, 2 and 4, only 1.2 μL of DMSO was added to the well. In addition, as a control of compound 8-17, only 1.5 μL of DMSO was added to the well.
(2) A piece of the cell culture was sampled to count cells with a cell counter (BIO RAD TC-20). The cell culture was centrifuged at 300×g for 5 min, and the supernatant was removed. The residue was suspended in phosphate buffered saline (supplemented with 1% bovine serum albumin (BSA), without calcium and magnesium) (1% BSA/PBS) to adjust the concentration of cells to 5-10×10^6 cells/mL.
(3) To 5 ml tube, each 50 μL of the cell suspension was added.
(4) Foxp3/Transcription Factor Fix/Perm Concentrate (4×) (Cat. No. TNB-1020-L050) (Solution A) in FOXP3/Transcription Factor Staining kit (TONBO biosciences) was diluted with Foxp3/Transcription Factor Fix/Perm Diluent (1×) (Cat. No. TNB-1022-L160) (for dilution of Solution A) to prepare 1× Solution A.
(5) 1 mL of 1× Solution A was added to each tube and mixed by gentle pipetting. Subsequently, it was left at room temperature for 30 min, centrifuged at 300×g for […], and the supernatant was discarded.
(6) Flow Cytometry Perm Buffer (10×) (Cat. No. TNB-1213-L150) (Solution B) in the kit was diluted 10-fold with water to prepare 1× Solution B.
(7) 2 mL of 1× Solution B was added to the tube and centrifuged at 300×g for 5 min. The supernatant was discarded. 2 μL of 2% normal mouse serum/PBS was added to the tube and the tube was gently pipetted. Subsequently, it was left at room temperature for 15 min.
(8) In the CTLA-4 measurement, 20 μL of anti-CTLA-4 antibody (BECKMAN COULTER, CD152-PE clone BN13I M2282) or mouse IgG2a (BECKMAN COULTER, IgG2a (Mouse)-PE A09142) for the control was added to the tube and the tube was gently stirred. Subsequently, it was left in the dark at room temperature for 30 min, and 2 mL of the 1× Solution B was added thereto, the mixture was centrifuged at 300×g for 5 min, and the supernatant was discarded. 2 mL of the 1× Solution B was added to the tube again, the mixture was centrifuged at 300×g for 5 min, and the supernatant was discarded.
(9) Within 2 hours after the solution in the tube was suspended in 0.5 mL of 1% BSA/PBS, and the fluorescence at 577 nm was measured with 488 nm excitation with a flow cytometer (Sony: Cell Sorter SH800). The results were analyzed with software, FlowJo (Tree Star Inc.). The mean peak fluorescence intensity (MFI) of CTLA-4 and mean peak fluorescence intensity of isotype control IgG2a were calculated from histgrams of the measured fluorescence intensity and number of cells, and mean fluorescence intensity of IgG2a was subtracted from that of CTLA-4. Experiments were conducted in n=3, and the average values were shown.

For a further assay, the system named is IL-10. Kind of assay: Measurement of human IL-10 amount in culture supernatant of MT2 cells with ELISA kit (Test 1). The class given is cell-based. The settings on record: 48±2 hours; for activity at 12.5 µM / activity at 25 µM: Homo sapiens, 48 h, DMSO control = 100%, read-out: % against control (IL-10 production). As for the experimental part:
as §1, §2
The amount of IL-10 production in the control and the example compounds was measured to evaluate the inhibitory effect on IL-10 production of the example compounds of the present invention.
(1) MT2 cells are suspended in RPMI1640 medium (hereinafter referred to as “the medium”) supplemented with 10% fetal calf serum (FCS) and 1% penicillin/streptomycin (P/S) to give 3×10^5 cells/mL suspension, and 1 mL of the suspension was added to each well of a 24-well plate. […] The cell cultures were incubated 48±2 hours in a CO2 incubator (under a condition of 37° C., 5 CO2). DMSO was diluted 50-fold with the medium, and 20 μL of the diluent was added to the well to make a control of compounds 1-7. In addition, DMSO was diluted 50-fold with the medium, and 25.0 μL of the diluent was added to the well to make a control of compounds 8-17.
(2) A piece of the cell culture was sampled to count cells with a cell counter (BIO RAD TC-20). The cell culture was centrifuged at 300×g for 5 minutes and the supernatant was collected as a sample for IL-10 measurement. When not measured within a day, it was preserved in a freezer at −80° C.
(3) Human IL-10 ELISA kit II (BD OptEIA) was used on the measurement. The kit contains wells treated with anti-IL-10 antibody (8 wells/strip), Standard/Sample diluent, vials comprising freeze-dried IL-10 Standard (1280 pg/vial), ELISA diluent, 20× Wash Buffer, Detection antibody, Enzyme Concentrate, TMB One Step Substrate Reagent, Stop Solution, and cover sheets.
(4) To a vial containing IL-10 Standard was added […] Standard/Sample diluent, and the vial was stood at room temperature for 15 minutes to be dissolved (Standard sample stock solution 1L-10 concentration: 500 pg/mL).
(5) Standard samples in each concentration for making a standard curve were prepared as follows. Firstly, to 300 μL of the medium was added 300 μL of the standard sample stock solution, and the mixture was mixed with a Voltex mixer (250 pg/mL). Next, 300 μL of the standard sample of 250 pg/mL was added to 300 μL of the medium and the mixture was mixed with a Voltex mixer (125 pg/mL). The same procedures were successively repeated to prepare standard solutions of 62.5, 31.25, 15.625, and 7.8125 pg/mL. As 0 pg/mL standard solution, the medium was used.
(6) A kit containing wells treated with anti-IL-10 antibody (8 wells/strip) was warmed to room temperature and 50 μL of ELISA diluent in the kit was added into each well.
(7) To each well containing ELISA diluent, 100 μL of the standard samples of each concentration and each test sample (diluded 50-100 fold with medium) were added.
(8) After the wells were sealed with a cover sheet and gently tapped, they were left at room temperature for 2 hours.
(9) 20× Wash Buffer was diluted 20-fold with water to prepare 1× Wash Buffer.
(10) After the reaction was done for 2 hours, the solutions in each well were aspirated and washed 5 times with 300 μL of 1× Wash Buffer.
(11) After Enzyme Concentrate (4 μL per 8 wells) was added to Detection antibody (1 ml per 8 wells), the solution was mixed by a Vortex mixer and then a necessary amount of Working Detector was prepared.
(12) 100 μL of Working Detector was added to each well, covered with a cover sheet, and the wells were left at room temperature for an hour.
(13) After the reaction was done for an hour, the solutions in wells were aspirated and washed 7 times with 300 μL of 1× Wash Buffer. […]

With `COC(=O)C1=CN2CCc3c([nH]c4ccc(Cl)cc34)[C@@H]2[C@@H]2[C@@H](C)[C@@H](O)C[C@H]12` [Compound 12], in the assay on CTLA-4, the “Peak MFI of CTLA-4” value is on record as 485 and the activity at 25 µM was found to be 57.2%. Also, in the assay with IL-10 (12.5 μmol/L), the “IL-10 (ng/10^6 cells) ± standard deviate (n = 3)” value was found to be 7.1 ± 0.2 ng/10^6 cells and the activity at 12.5 µM was found to be 75.7%. Also, in the assay with IL-10 (25.0 μmol/L), the “IL-10 (ng/10^6 cells) ± standard deviate (n = 3)” value is on record as 4.8 ± 0.3 ng/10^6 cells and the activity at 25 µM stood at 50.9%.
With `COC(=O)C1=CN2CCc3c([nH]c4ccc(Br)cc34)[C@@H]2[C@@H]2[C@@H](C)[C@@H](O)C[C@H]12` [Compound 13], in the assay with CTLA-4, the “Peak MFI of CTLA-4” value is 775 and the activity at 25 µM amounted to 91.6%. Besides, in the assay with IL-10 (12.5 μmol/L), the “IL-10 (ng/10^6 cells) ± standard deviate (n = 3)” value is listed as 7.7 ± 0.6 ng/10^6 cells and the activity at 12.5 µM was 81.2%. Further, in the assay with IL-10 (25.0 μmol/L), the “IL-10 (ng/10^6 cells) ± standard deviate (n = 3)” value amounted to 4.2 ± 0.2 ng/10^6 cells and the activity at 25 µM is 44%.
`COC(=O)C1=CN2CCc3c([nH]c4ccc(C)cc34)[C@@H]2[C@@H]2[C@@H](C)[C@@H](O)C[C@H]12` [Compound 14]: in the assay on CTLA-4, the “Peak MFI of CTLA-4” value was 450 and the activity at 25 µM is 53%. Moreover, in the assay on IL-10 (12.5 μmol/L), the “IL-10 (ng/10^6 cells) ± standard deviate (n = 3)” value was 7.4 ± 0.3 ng/10^6 cells and the activity at 12.5 µM worked out at 67.7%. In the assay on IL-10 (25.0 μmol/L), the “IL-10 (ng/10^6 cells) ± standard deviate (n = 3)” value was found to be 4.3 ± 1.0 ng/10^6 cells and the activity at 25 µM is 39.2%.
As for `COC(=O)C1=CN2CCc3c([nH]c4ccc(OCc5ccccc5)cc34)[C@@H]2[C@@H]2[C@@H](C)[C@@H](O)C[C@H]12` [Compound 15], in the assay with CTLA-4, the “Peak MFI of CTLA-4” value is 284 and the activity at 25 µM came out at 37.7%. For the same compound, in the assay on IL-10 (12.5 μmol/L), the “IL-10 (ng/10^6 cells) ± standard deviate (n = 3)” value amounted to 6.5 ± 0.2 ng/10^6 cells and the activity at 12.5 µM stood at 59.3%. In addition, in the assay with IL-10 (25.0 μmol/L), the “IL-10 (ng/10^6 cells) ± standard deviate (n = 3)” value turned out to be 0.6 ± 0.4 ng/10^6 cells and the activity at 25 µM was found to be 5.1%.
For `COC(=O)C1=CN2CCc3c([nH]c4ccc(O)cc34)[C@@H]2[C@@H]2[C@@H](C)[C@@H](O)C[C@H]12` [Compound 16], in the assay on CTLA-4, the “Peak MFI of CTLA-4” value was 529 and the activity at 25 µM stood at 70.3%. In the assay with IL-10 (12.5 μmol/L), the “IL-10 (ng/10^6 cells) ± standard deviate (n = 3)” value is reported as 9.8 ± 0.3 ng/10^6 cells and the activity at 12.5 µM is 88.9%. Also, in the assay on IL-10 (25.0 μmol/L), the “IL-10 (ng/10^6 cells) ± standard deviate (n = 3)” value was 8.6 ± 0.1 ng/10^6 cells and the activity at 25 µM was determined as 77.9%.
With `COC(=O)C1=CN2CCc3c([nH]c4c(F)cccc34)[C@@H]2[C@@H]2[C@@H](C)[C@@H](O)C[C@H]12` [Compound 17], in the assay on CTLA-4, the “Peak MFI of CTLA-4” value was 339 and the activity at 25 µM turned out to be 45%. In the assay with IL-10 (12.5 μmol/L), the “IL-10 (ng/10^6 cells) ± standard deviate (n = 3)” value is 7.0 ± 0.2 ng/10^6 cells and the activity at 12.5 µM was 64.2%. Further, in the assay on IL-10 (25.0 μmol/L), the “IL-10 (ng/10^6 cells) ± standard deviate (n = 3)” value turned out to be 6.0 ± 0.2 ng/10^6 cells and the activity at 25 µM was determined as 54.2%.
